Design in all cases: key: 0: normal development; 1: Less damaged; 2: Slightly damaged; 3: Moderately damaged; 4: Severely damaged; 5: All killed
In one test the test system is solgum. Nature of the test: Foliar spread test for upland field. As to conditions: foliar spray 500 ppm, 3 weeks, rank vs non-treated. It is filed as in vivo. A digest of the protocol:
(§1)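 Wettable powders at 500 ppm, with 0.5% surfactant, were sprayed uniformly over plants raised for roughly 2 weeks in glasshouse pots of volcanic ash soil. Herbicidal damage rated on a 0–5 scale (5 = all killed) after a further 3 weeks at an average 25 °C.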

In a further test the test system is corn. The experiment in a line: Foliar spread test for upland field. The test is classed as in vivo. As to conditions: foliar spray 500 ppm, 3 weeks, rank vs non-treated. A digest of the protocol:
as §1

The next test deals with cotton. Nature of the test: Foliar spread test for upland field. Conditions: foliar spray 500 ppm, 3 weeks, rank vs non-treated. It is filed as in vivo. A digest of the protocol: as §1
The next test relates to sugar beat. Nature of the test: Foliar spread test for upland field. It is filed as in vivo. Conditions: foliar spray 500 ppm, 3 weeks, rank vs non-treated. The method, boiled down:
as §1

A further test concerns wheat. Nature of the test: Foliar spread test for upland field. The test is classed as in vivo. As to conditions: foliar spray 500 ppm, 3 weeks, rank vs non-treated. A digest of the protocol:
as §1

The test system of another test is soybean. The experiment in a line: Foliar spread test for upland field. It is filed as in vivo. Conditions: foliar spray 500 ppm, 3 weeks, rank vs non-treated. A digest of the protocol: as §1
In a further test the test system is young rice plant. Nature of the test: Herbicidal test for paddy field. The test is classed as in vivo. As to conditions: paddy field pot, 500 g/ha dropwise at 1.5 leaf stage of barnyardgrass, 3 weeks, rank vs non-treated. A digest of the protocol: (§2)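 Post-flooding water application of 500 g/ha, given at 1.5-leaf barnyardgrass, to plants in Ube alluvial soil held under 3 cm of water. Ratings of 0 to 5 relative to untreated controls were made after three weeks in a glasshouse.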

For test [1], the system named is barnyardgrass. Nature of the test: Foliar spread test for upland field. The test is classed as in vivo, Echinochloa crusgalli. Conditions: foliar spray 500 ppm, 3 weeks, rank vs non-treated. The method, boiled down:
(§3)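 Seeds are planted in pots of volcanic ash soil and grown roughly 2 weeks under glass. Foliage then receives a uniform spray of compound at 500 ppm in water with 0.5% surfactant. Herbicidal damage is rated 0–5 after 3 weeks at an average 25° C.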

Another test deals with green foxtail. Nature of the test: Foliar spread test for upland field. The test is classed as in vivo, Setaria viridis. Conditions: foliar spray 500 ppm, 3 weeks, rank vs non-treated. A digest of the protocol:
as §3

A further test has as its system livid amaranth. Nature of the test: Soil treatment test for upland field. It is filed as in vivo, Amaranthus lividus. Conditions: 500 g/ha, glass house 25° C., 3 weeks. A digest of the protocol:
(§4)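 Compounds were formulated as wettable powders and applied pre-emergence to the surface of freshly sown alluvial soil at 500 g/ha. After three weeks in a glass house averaging 25° C, damage was rated from 0 (normal development) to 5 (all killed).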

In another test the test system is bulrush. Nature of the test: Herbicidal test for paddy field. As to conditions: paddy field pot, 500 g/ha dropwise at 1.5 leaf stage of barnyardgrass, 3 weeks, rank vs non-treated. The test is classed as in vivo, Scrips juncoides. The method, boiled down: as §2
Test [2] deals with Large crabgrass. Nature of the test: Foliar spread test for upland field. It is filed as in vivo, Digitaria adscendens. Conditions: foliar spray 500 ppm, 3 weeks, rank vs non-treated. The method, boiled down:
as §3

The subject of test [3] is Large crabgrass. Nature of the test: Soil treatment test for upland field. It is filed as in vivo, Digitaria adscendens. As to conditions: 500 g/ha, glass house 25° C., 3 weeks. The method, boiled down:
as §4

The test system of test [4] is barnyardgrass. The experiment in a line: Soil treatment test for upland field. The test is classed as in vivo, Echinochloa crusgalli. Conditions: 500 g/ha, glass house 25° C., 3 weeks. A digest of the protocol:
as §4

Consider `CCCC(Oc1cccc(C(F)(F)F)c1)c1nc2cc(C(F)(F)F)ccc2o1` (stereo not shown) [Compound 200], for which, in the test with solgum, the “Effects Solgum” value is given as 2. Moreover, the “Effects Corn” value in the test on corn is recorded as 2. Further, the “Effects Cotton” value with cotton turned out to be 3. Also, in the test with sugar beat, the “Effects Sugar beat” value is reported as 4. The “Effects Wheat” value in the test with wheat was found to be 2. In addition, the “Effects Soybean” value with soybean is given as 3. In the test on young rice plant, the “Effect Young rice plant” value came to 0. The “Effects Barnyardgrass” value in the test with barnyardgrass [1] is on record as 2; in the test with barnyardgrass [4], 5. Besides, the “Effects Green foxtail” value in the test with green foxtail came to 5. Also, the “Effects Livid amaranth” value with livid amaranth came out at 5. Besides, in the test with bulrush, the “Effect Bulrush” value is given as 2. Moreover, the “Effects Large crabgrass” value with Large crabgrass [2] came out at 3; with Large crabgrass [3], 5.

In the case of `CC(Oc1ccc(F)c(C(F)(F)F)c1)c1nc2cc(Cl)ccc2o1` (stereo not shown) [Compound 137], in the test with solgum, the “Effects Solgum” value was found to be 1. For the same compound, in the test with corn, the “Effects Corn” value is on record as 2. In the test on cotton, the “Effects Cotton” value is recorded as 2. For the same compound, the “Effects Sugar beat” value with sugar beat turned out to be 5. Further, the “Effects Wheat” value in the test with wheat is listed as 1. Besides, in the test with soybean, the “Effects Soybean” value turned out to be 3. Besides, the “Effect Young rice plant” value with young rice plant came to 1. The “Effects Green foxtail” value in the test on green foxtail worked out at 3. Also, in the test with livid amaranth, the “Effects Livid amaranth” value was determined as 5. Besides, the “Effect Bulrush” value in the test with bulrush is recorded as 3. Also, the “Effects Large crabgrass” value worked out at 1 in the test on Large crabgrass [2] and 5 with Large crabgrass [3]. In addition, the “Effects Barnyardgrass” value in the test with barnyardgrass [4] is listed as 3.

As to `CCCC(Oc1cccc(C(F)(F)F)c1)c1nc2cc(F)c(Cl)cc2o1` (stereo not shown) [Compound 497], the “Effects Solgum” value in the test on solgum is on record as 1. In the test on corn, the “Effects Corn” value worked out at 2. Besides, the “Effects Cotton” value with cotton is recorded as 2. Further, in the test with sugar beat, the “Effects Sugar beat” value is reported as 5. Further, the “Effects Wheat” value in the test with wheat turned out to be 2. Moreover, the “Effect Young rice plant” value in the test with young rice plant is 2. Also, the “Effects Green foxtail” value in the test on green foxtail amounted to 4. The “Effects Livid amaranth” value in the test on livid amaranth turned out to be 5. Besides, the “Effect Bulrush” value in the test with bulrush was 2. The “Effects Large crabgrass” value was found to be 2 in the test on Large crabgrass [2] and 5 with Large crabgrass [3].

As for `CCCC(Oc1ccc(F)c(C(F)(F)F)c1)c1nc2cc(Cl)ccc2o1` (stereo not shown) [Compound 141], the “Effects Solgum” value with solgum amounted to 1. Further, the “Effects Corn” value in the test on corn is reported as 2. Further, in the test with cotton, the “Effects Cotton” value turned out to be 3. The “Effects Wheat” value in the test on wheat is listed as 2. Further, the “Effects Soybean” value with soybean amounted to 4. The “Effect Young rice plant” value in the test with young rice plant turned out to be 1. The “Effects Barnyardgrass” value in the test with barnyardgrass [1] turned out to be 4; in the test on barnyardgrass [4], 3. Also, the “Effects Green foxtail” value in the test on green foxtail is listed as 4. Moreover, the “Effects Livid amaranth” value with livid amaranth was determined as 5. The “Effect Bulrush” value with bulrush was 5. For the same compound, the results for the “Effects Large crabgrass” value in the test on Large crabgrass [2] and in the test with Large crabgrass [3] were 4 and 5, respectively.

Take `CCC(Oc1cccc(C#N)c1)c1nc2cc(F)c(Cl)cc2o1` (stereo not shown) [Compound 498]: the “Effects Solgum” value in the test on solgum came out at 1. Further, the “Effects Corn” value in the test with corn came out at 1. Also, the “Effects Sugar beat” value in the test on sugar beat was found to be 4. Moreover, the “Effects Wheat” value with wheat is 2. Also, the “Effect Young rice plant” value in the test on young rice plant stood at 1. The “Effects Green foxtail” value in the test with green foxtail is on record as 4. Also, in the test with livid amaranth, the “Effects Livid amaranth” value was 5. Moreover, in the test with bulrush, the “Effect Bulrush” value stood at 3. Further, the “Effects Large crabgrass” value with Large crabgrass [2] is given as 3; with Large crabgrass [3] it was 5. In the test with barnyardgrass [4], the “Effects Barnyardgrass” value is 3.

Take `CCCC(Oc1cccc(C(F)(F)F)c1)c1nc2cc(F)c(C(F)(F)F)cc2o1` (stereo not shown) [Compound 474]: the “Effects Solgum” value in the test with solgum turned out to be 2. For the same compound, the “Effects Corn” value with corn worked out at 2. Also, in the test on sugar beat, the “Effects Sugar beat” value was found to be 5. In the test with wheat, the “Effects Wheat” value is on record as 2. The “Effects Green foxtail” value with green foxtail was determined as 5. Also, in the test with livid amaranth, the “Effects Livid amaranth” value is given as 5. Moreover, the “Effects Large crabgrass” value in the test with Large crabgrass [2] and with Large crabgrass [3] was 5 in each case. Also, in the test with barnyardgrass [4], the “Effects Barnyardgrass” value is given as 5.

As to `CCC(Oc1cccc(C(F)(F)F)c1)c1nc2cc(C#N)c(C#N)cc2o1` (stereo not shown) [Compound 315], the “Effects Solgum” value in the test on solgum is 2. Moreover, the “Effects Corn” value with corn is reported as 1. Also, the “Effects Sugar beat” value with sugar beat was 5. Moreover, in the test with wheat, the “Effects Wheat” value came to 2. Also, the “Effect Young rice plant” value in the test with young rice plant amounted to 1. Also, in the test on green foxtail, the “Effects Green foxtail” value amounted to 5. Further, in the test on livid amaranth, the “Effects Livid amaranth” value turned out to be 5. The “Effect Bulrush” value in the test with bulrush is on record as 2. The figures for the “Effects Large crabgrass” value in the test with Large crabgrass [2] and with Large crabgrass [3] were 2 and 5, respectively. Moreover, the “Effects Barnyardgrass” value in the test with barnyardgrass [4] came to 4.

On to `CCC(Oc1cccc(C(F)(F)F)c1)c1nc2cc(Cl)ccc2o1` (stereo not shown) [Compound 140], for which the “Effects Solgum” value in the test with solgum amounted to 2. Besides, the “Effects Corn” value with corn was found to be 3. Further, in the test with cotton, the “Effects Cotton” value came out at 3. Also, the “Effects Sugar beat” value in the test on sugar beat amounted to 3. Further, the “Effects Wheat” value in the test on wheat worked out at 2. Moreover, the “Effects Soybean” value in the test with soybean came out at 3. The “Effect Young rice plant” value with young rice plant came to 1. The figures for the “Effects Barnyardgrass” value in the test on barnyardgrass [1] and in the test on barnyardgrass [4] were 2 and 4, respectively. Besides, the “Effects Green foxtail” value in the test with green foxtail is 2. Also, in the test with livid amaranth, the “Effects Livid amaranth” value was determined as 5. The “Effects Large crabgrass” value is 2 in the test with Large crabgrass [2] and 5 in the test on Large crabgrass [3].

On to `CCC(Oc1ccc(F)c(C(F)(F)F)c1)c1nc2cc(C(F)(F)F)ccc2o1` (stereo not shown) [Compound 197], for which the “Effects Solgum” value in the test with solgum was determined as 2. Besides, in the test with corn, the “Effects Corn” value is given as 4. Moreover, the “Effects Cotton” value with cotton was 3. The “Effects Wheat” value with wheat came to 2. Besides, the “Effects Soybean” value with soybean came to 5. Besides, the “Effect Young rice plant” value in the test on young rice plant was 3. Besides, the “Effects Barnyardgrass” value in the test on barnyardgrass [1] was 1; with barnyardgrass [4] it was 5. Also, the “Effects Green foxtail” value with green foxtail was determined as 5. Moreover, the “Effects Livid amaranth” value in the test with livid amaranth is reported as 5. Further, the “Effects Large crabgrass” value in the test on Large crabgrass [2] is listed as 3; in the test on Large crabgrass [3], 5.

On to `CCCC(Oc1ccc(F)c(C(F)(F)F)c1)c1nc2cc(F)c(Cl)cc2o1` (stereo not shown) [Compound 494], for which the “Effects Solgum” value with solgum was determined as 1. Further, in the test on corn, the “Effects Corn” value amounted to 2. Further, the “Effects Cotton” value in the test on cotton is 2. In the test with sugar beat, the “Effects Sugar beat” value is given as 3. Besides, the “Effects Wheat” value with wheat came to 1. Also, the “Effects Green foxtail” value with green foxtail is given as 3. The “Effects Livid amaranth” value in the test with livid amaranth is 5. In addition, in the test with bulrush, the “Effect Bulrush” value is recorded as 3. The “Effects Large crabgrass” value with Large crabgrass [3] is on record as 5. The “Effects Barnyardgrass” value in the test on barnyardgrass [4] is given as 4.

Turning to `CCC(Oc1ccc(F)c(C(F)(F)F)c1)c1nc2cc(Cl)ccc2o1` (stereo not shown) [Compound 139], the “Effects Solgum” value with solgum stood at 2. For the same compound, the “Effects Corn” value in the test on corn was determined as 3. In addition, in the test with cotton, the “Effects Cotton” value is recorded as 3. In addition, in the test with wheat, the “Effects Wheat” value turned out to be 2. The “Effects Soybean” value with soybean was determined as 5. Further, the “Effect Young rice plant” value with young rice plant turned out to be 2. Further, the figures for the “Effects Barnyardgrass” value in the test with barnyardgrass [1] and in the test with barnyardgrass [4] were 2 and 3, respectively. Also, in the test on green foxtail, the “Effects Green foxtail” value is on record as 4. In addition, the “Effects Livid amaranth” value in the test with livid amaranth was found to be 5. Moreover, the “Effect Bulrush” value with bulrush was determined as 5. In addition, the “Effects Large crabgrass” value in the test with Large crabgrass [2] was found to be 2; in the test with Large crabgrass [3] it was 5.

The values above are taken from patent US6706664B1, “Benzoxazole compounds, process for the preparation thereof and herbicides” (UBE Industries, Ltd., priority 1999, dated 2004).
